For data set [1], the system named is K562. Description: Induction of apoptosis in human K562 assessed as viable cells at 20 nM after 48 hrs by Annexin V-APC/propidium iodide staining-based flow cytometric analysis (reference value: 92.34%). The class given is functional. Particulars: K562, 48 h, read-out: Activity.
Data set [2] relates to K562. Description: Cell cycle arrest in human K562 cells assessed as accumulation of cells at S phase at 20 nM after 48 hrs by propidium iodide staining-based flow cytometric analysis (reference value: 36.27%). The class given is functional.
The nature of data set [3]: Toxicity in ICR mouse xenografted with […] cells assessed as effect on spleen at 10 to 20 mg/kg, iv qd for 21 consecutive days by H and E staining-based assay. The class given is organism-based. Particulars: in vivo.
Data set [4] is described as follows: Toxicity in ICR mouse xenografted with […] cells assessed as decrease in body weight at 10 to 20 mg/kg, iv qd administered for 21 days and measured every 2 days. The class given is organism-based. Particulars: in vivo.
The nature of data set [5]: Toxicity in ICR mouse assessed as mouse survival at 409.6 mg/kg, iv for 14 days relative to control. The class given is organism-based. Particulars: in vivo.
Data set [6] can be described thus: Toxicity in ICR mouse assessed as mouse survival at 800 mg/kg, iv for 14 days relative to control. Format: organism-based. Particulars: in vivo.
In a further data set the target is Tubulin (Sus scrofa, UniProt P02554+P02550). The data set can be described thus: Inhibition of porcine brain tubulin polymerization measured every 2 mins for 60 mins by spectrophotometric analysis.
For data set [7], the system named is K562. The data set can be described thus: Induction of apoptosis in human K562 assessed as necrotic cells at 20 nM after 48 hrs by Annexin V-APC/propidium iodide staining-based flow cytometric analysis (reference value: 1.92%). Format: functional.
Data set [8] concerns K562. Description: Cell cycle arrest in human K562 cells assessed as accumulation of cells at G1 phase at 20 nM after 48 hrs by propidium iodide staining-based flow cytometric analysis (reference value: 47.91%). Format: functional.
Data set [9] has as its system K562. The data set can be described thus: Induction of mitochondrial membrane potential disruption in human K562 cells assessed as intact mitochondrial membrane potential at 5 nM after 48 hrs by JC-1 staining-based flow cytometric analysis (reference value: 99.12%). The class given is functional.
Data set [10] can be described thus: Toxicity in ICR mouse assessed as mouse survival at 1000 mg/kg, iv for 14 days relative to control. Format: organism-based. Particulars: in vivo.
The nature of data set [11]: Cytotoxicity against human MDA-MB-231 cells assessed as growth inhibition at 10 nM after 48 hrs. The class given is cell-based. Particulars: read-out: GI.
Data set [12] can be described thus: Toxicity in ICR mouse assessed as mouse survival at 512 mg/kg, iv for 14 days relative to control. The class given is organism-based. Particulars: in vivo.

Each structure is given as a SMILES string. A value given as a limit tells only on which side of the number the result lay.

Consider `COc1ccc(/C=C(\C)C(=O)c2cc(C)nc3ccccc23)cc1O`, for which the viability at 0.02 µM in the data set with K562 [1] is 35%. For the same compound, the Activity in the data set with K562 [2] is recorded as 30.35%; in data set [3], “Non-Toxic”; in [4], “Non-Toxic”; in the data set on K562 [7], 4.86%; with K562 [8], 42.68%; in the data set with K562 [9] it was 84.97%. For the same compound, the survival at 336 h in data set [5] came to 90%; in [6], 30%; in [10] it was 10%; in [12] it was 80%. In addition, at Tubulin, the IC50 stood at 1.71 µM. The inhibition at 48 h, 0.01 µM in data set [11] was below 10%.

Values taken from ChEMBL document CHEMBL4330075, “Discovery of Novel Quinoline-Chalcone Derivatives as Potent Antitumor Agents with Microtubule Polymerization Inhibitory Activity” (J Med Chem, 2019).
